Data as given in PubChem BioAssay (NCI).
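Values below derive from 48-hour exposures of cells grown in 96-well plates, with endpoints linearly interpolated between the two concentrations bracketing the appropriate inhibition level. GI50 is the concentration that inhibits growth by half. TGI: total growth inhibition.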

How the values were obtained:
Experiment in all cases: DTP human tumour cell line panel, 48 h
[1] = system: SNB-19 CNS
[2] = system: OVCAR-8 ovarian
[3] = system: MDA-MB-435
[4] = system: CAKI-1 renal
[5] = system: SK-MEL-28 melanoma
[6] = system: NCI-H23 lung
[7] = system: IGROV1 ovarian
[8] = system: NCI-H522 lung
[9] = system: SN12C renal
[10] = system: HL-60(TB) leukemia

SMILES	GI50 [1] [µM]	TGI [1] [µM]	GI50 [2] [µM]	TGI [2] [µM]	GI50 [3] [µM]	TGI [3] [µM]	GI50 [4] [µM]	TGI [4] [µM]	GI50 [5] [µM]	TGI [5] [µM]	GI50 [6] [µM]	TGI [6] [µM]	GI50 [7] [µM]	TGI [7] [µM]	GI50 [8] [µM]	TGI [8] [µM]	GI50 [9] [µM]	TGI [9] [µM]	TGI [10] [µM]	GI50 [10] [µM]
O=C1c2ccccc2-c2c1c1ccc([N+](=O)[O-])cc1c(=O)n2CCN1CCOCC1	79.2	> 100	> 100	> 100	> 100	> 100	41.3	> 100	> 100	> 100	> 100	> 100	> 100	> 100	> 100	> 100	59.3	> 100	–	–
CC(C)(C)CC(C)(C)c1cc2c(O)c(c1)Cc1cc(C(C)(C)CC(C)(C)C)cc(c1O)Cc1cc(C(C)(C)CC(C)(C)C)cc(c1O)Cc1cc(C(C)(C)CC(C)(C)C)cc(c1O)Cc1cc(C(C)(C)CC(C)(C)C)cc(c1O)Cc1cc(C(C)(C)CC(C)(C)C)cc(c1O)Cc1cc(C(C)(C)CC(C)(C)C)cc(c1O)Cc1cc(C(C)(C)CC(C)(C)C)cc(c1O)C2	–	> 100	–	> 100	–	–	–	–	–	> 100	–	> 100	–	> 100	–	> 100	–	> 100	> 100	–
CC(C)CCCC(C)[C@H]1CCC2C3CC=C4C[C@@H](OC(=O)CC(CC(=O)[O-])C(=O)[O-])CC[C@]4(C)C3CC[C@@]21C.N.N.[Pt+4] (some centres undefined)	> 100	> 100	> 100	> 100	–	–	> 100	> 100	> 100	> 100	–	–	> 100	> 100	–	–	> 100	> 100	> 100	> 100
O=C(/C=C/c1ccco1)N1CCN(Cc2ccccc2)CC1	–	> 100	–	> 100	–	–	–	> 100	–	> 100	–	> 100	–	> 100	–	> 100	–	> 100	> 100	–
CCOc1ccc2c(c1)[n+]([O-])c(-c1ccc([N+](=O)[O-])cc1)c(N)[n+]2[O-]	–	> 100	–	> 100	–	–	–	> 100	–	> 100	–	> 100	–	> 100	–	> 100	–	> 100	> 100	–
COc1cc2ccnc(-c3n[nH]c4cc(OC)c(OC)cc34)c2cc1OC	–	> 100	–	> 100	–	–	–	> 100	–	> 100	–	> 100	–	> 100	–	69.7	–	> 100	> 100	–
Cc1cc(O)cc(-c2nn(C)cc2-c2cc(N3CCOCC3)nc(-c3cccnc3)n2)c1	4.84	> 100	7.11	> 100	–	–	3.32	> 100	3.8	21.1	5.31	60.3	4.27	72.6	2.79	18.1	5.51	> 100	20.2	2.81
O=CCC(O)C(O)C(O)CO (centres undefined)	> 100	> 100	> 100	> 100	> 100	> 100	> 100	> 100	> 100	> 100	> 100	> 100	> 100	> 100	> 100	> 100	> 100	> 100	–	–
CC(C)(C)c1cc(C#N)c2c(c1)C(=O)OC2(c1ccccc1)c1ccccc1C#N (centres undefined)	–	> 100	–	> 100	–	–	–	> 100	–	> 100	–	> 100	–	> 100	–	> 100	–	> 100	> 100	–
O=C(Cc1ccccc1)N/N=C(/c1nc2ccc([N+](=O)[O-])cc2[nH]c1=O)C(O)c1ccco1 (centres undefined)	–	–	–	> 100	–	–	–	> 100	–	> 100	–	> 100	–	> 100	–	> 100	–	> 100	> 100	–
OCC(O)C(OC1OC(CO)C(O)C(O)C1O)c1nn(-c2ccc(Cl)cc2)c2nc3cc(Cl)c(Cl)cc3nc12 (centres undefined)	–	> 100	–	> 100	–	–	–	–	–	> 100	–	> 100	–	–	–	> 100	–	> 100	–	–
O=C(/C=C/c1cc(O)ccc1O)c1ccc(Cl)cc1	36.8	> 100	57.2	> 100	30	> 100	44	> 100	60.4	> 100	19.1	43.3	> 100	> 100	61.8	> 100	18.1	44.7	–	–
CCOC(=O)CC1C(CNC(=O)NC)OC(n2cnc3c(NC(=O)Nc4ccccc4)ncnc32)C1O[Si](C)(C)C(C)(C)C (centres undefined)	29	> 100	4.92	77.2	6.21	> 100	29.7	> 100	6.85	20.2	33.3	> 100	3.85	18	4.36	85.7	9.1	> 100	–	–
CC(C(=O)c1ccc(O)cc1)C1(O)C(=O)Nc2c(Cl)cc(Cl)cc21 (centres undefined)	–	> 100	–	> 100	–	–	–	> 100	–	78.1	–	> 100	–	> 100	–	57.8	–	> 100	50.2	–
[N-]=[N+]=Nc1nnc(CCCCc2nnc(N=[N+]=[N-])o2)o1	–	> 100	–	> 100	–	–	–	–	–	> 100	–	> 100	–	–	–	> 100	–	> 100	–	–
Clc1ccc2c(NCCNc3nc(N4CCCCC4)nc4ccccc34)ccnc2c1	3.06	15.6	2.17	5.18	1.74	3.43	–	–	1.86	3.52	4.07	18.4	2.54	9.86	1.75	3.85	2.13	6.84	–	–
CC/C(=N/O)C(C)C(=O)CCC(=O)Nc1ccc(Cl)cc1 (centres undefined)	–	> 100	–	> 100	–	–	–	> 100	–	> 100	–	> 100	–	> 100	–	–	–	> 100	> 100	–
C=CCC(O)c1cc(OC)ccc1OC (centres undefined)	–	> 100	–	> 100	–	–	–	> 100	–	> 100	–	–	–	> 100	–	> 100	–	> 100	> 100	–
